Assay results published in US9415108B2, “Compositions for transdermal delivery of active agents” (NeuroDerm, Ltd., priority 2010, dated 2016).

Columns and labels:
Format in all cases: in vitro ADME
[1] = Transdermal delivery of opipramol through full thickness pig skin ex vivo
Protocol: FIG. 7 depicts the effect of organic acids on the transdermal delivery of opipramol through full thickness pig skin. Formulations containing opipramol, various organic acids (succinic acid, citric acid, lactic acid, ascorbic acid, malic acid, or tartaric acid), octanol, lauroglycol, and/or Klucel® are prepared. Samples are collected from the receive cell at 22 and 46 hours after application of the formulations to the skin. The amount of opipramol compounds in the receiver cell fluid is determined using a spectrophotometer and/or UV-HPLC at 280 nm. FIG. 8 depicts the effects of octanol, limonene and/or lauroglycol on the transdermal delivery of opipramol (5% by weight) through full thickness pig skin.

[2] = as above; remark: listed apart in the source
[3] = Transdermal delivery of carbidopa through full thickness pig skin ex vivo, Franz Cell delivery system; settings: for Transdermal delivery of Carbidopa through full thickness pig skin, ex vivo: 24 h, 8.85% carbidopa-arginine salt
Protocol: The effects of octanol, limonene and/or lauroglycol on the transdermal delivery of carbidopa through full thickness pig skin are evaluated using the Franz Cell delivery system. Formulations containing carbidopa, octanol, limonene, and/or lauroglycol are prepared (formulations 1-8). Samples are collected from the receive cell at 24 and 41 hours after application of the formulation to the skin. The amount of carbidopa compounds in the receiver cell fluid is determined using a spectrophotometer and/or UV-HPLC at 280 nm. […] In Table 1 and FIG. 1, the formulations each contain 14.5% (by weight) carbidopa-arginine salt. In Table 2 the formulations each contain 8.85% (by weight) carbidopa-arginine salt.

[4] = inclusion of Klucel hydroxypropyl cellulose in formulation containing octanol and limonene (FIG. 4)

Structure (SMILES): OCCN1CCN(CCCN2c3ccccc3C=Cc3ccccc32)CC1 [opipramol]
- Effect of addition of organic acids on transdermal delivery of opipramol ([1]; FIG. 7): significantly increases
- Effect of lactic acid and citric acid on opipramol penetration through the skin ([1]; FIG. 7): minimal effect
- Effect of tartaric acid on opipramol delivery relative to other organic acids ([1]; FIG. 7, followed by ascorbic, succinic and malic acid): highest enhancing effect
- Effect of lauroglycol in the formulation on opipramol delivery ([1]; FIG. 8, Table 3): reduces the additive and/or synergistic effect
- Effect of the combination of octanol and limonene on delivery of opipramol through pig skin ([1]; FIG. 8, opipramol 5% by weight): additive and/or synergistic effect
- Effect of glutamic acid on opipramol penetration through the skin ([2]; FIG. 9): significantly increases
- Effect of increasing concentration of Klucel on penetration of opipramol through the skin ([2]; FIG. 10): reduces
- Effect of tartaric acid on opipramol penetration through the skin as compared to opipramol base ([2]; FIG. 11): significantly increases
- Tartaric acid compared with hydrochloric acid, opipramol penetration ([2]; FIG. 11): significantly superior
- Opipramol delivery of formulation containing 2.5% (wt) opipramol ([2]; FIG. 12, compared with 1% formulation): delivers more opipramol than the 1% formulation
- Transdermal delivery of opipramol at 5% opipramol in the formulation ([2]; FIG. 12, higher concentration): may be inhibited
- Rate of opipramol penetration ([2]; glutamic acid formulation, in the presence of 1% limonene (FIG. 9)): reduced
- Lag time of opipramol penetration through the skin ([2]; glutamic acid formulation, in the presence of 5% water (FIG. 9)): shortened

Structure (SMILES): C[C@@](Cc1ccc(O)c(O)c1)(NN)C(=O)O [Carbidopa, carbidopa]
- Transdermal delivery of Carbidopa through full thickness pig skin, ex vivo ([3]; Octanol 0, Limonene 1.5, Oleic Acid 0): 1.0 mg/cm^2
- Transdermal delivery of Carbidopa through full thickness pig skin, ex vivo ([3]; Octanol 0, Limonene 1.5, Oleic Acid 2): 1.0 mg/cm^2
- Transdermal delivery of Carbidopa through full thickness pig skin, ex vivo ([3]; Octanol 4, Limonene 1.5, Oleic Acid 0): 6.4 mg/cm^2
- Effect of the combination of octanol and lauroglycol on delivery of carbidopa through pig skin ([3]; FIG. 1, depends on the octanol:lauroglycol ratio): enhances
- Effect of the combination of octanol and limonene on delivery of carbidopa through pig skin ([3]; FIGS. 1 and 2, Tables 1 and 2): additive and/or synergistic effect
- Effect on lag time of carbidopa penetration through the skin ([3]; addition of lactic acid to formulation containing octanol and limonene (FIG. 3)): reduces
- Effect on lag time of carbidopa penetration [3, 4]: increases
- Effect on rate of carbidopa penetration through the skin [3, 4]: reduces
- Enhancement of penetration of the drug through the skin ([3]; on increasing the amount of carbidopa in the formulation by 50% (FIG. 5)): 25%
